Data set [1] concerns J774. The data set can be described thus: Cytotoxicity against mouse macrophage J774 cells assessed as reduction in cell viability at 6.25 to 25 uM incubated for 72 hrs by MTT assay. The class given is toxicity, cell-based. The following applies: j774, 72 h, dose 6.25-25 µM.
Data set [2] relates to Leishmania donovani. The data set can be described thus: Antileishmanial activity against Leishmania donovani MHOM/IN/80/Dd8 promastigotes harboring luciferase gene infected in mouse J774 cells assessed as inhibition of parasite viability at 25 uM incubated for 72 hrs by Steady-Glo reagent based luciferase assay relative to control. It is filed as functional. As to conditions: MHOM/IN/80/Dd8, J774.

The test system of data set [3] is Leishmania donovani. The data set can be described thus: Antileishmanial activity against Leishmania donovani MHOM/IN/80/Dd8 amastigotes harboring luciferase gene infected in mouse J774 cells assessed as inhibition of parasite viability at 25 uM incubated for 72 hrs by Steady-Glo reagent based luciferase assay relative to control. The class given is functional. As to conditions: MHOM/IN/80/Dd8, J774.

Data set [4] has as its system J774. The data set can be described thus: Cytotoxicity against mouse macrophage J774 cells assessed as reduction in cell viability at 50 to 100 uM incubated for 72 hrs by MTT assay. The class given is toxicity, cell-based. As to conditions: j774, 72 h, dose 50-100 µM. On the technique in general: Tetrazolium dyes change colour on reduction, which living cells bring about.

The test system of data set [5] is Leishmania donovani. The data set can be described thus: Antileishmanial activity against Leishmania donovani MHOM/IN/80/Dd8 amastigotes harboring luciferase gene infected in mouse J774 cells assessed as inhibition of parasite viability incubated for 72 hrs by Steady-Glo reagent based luciferase assay relative to control. It is filed as functional, organism-based. As to conditions: MHOM/IN/80/Dd8, J774, 72 h.

We go through 27 compounds from ChEMBL document CHEMBL5104126, “Discovery of 2,3-dihydro-1H-pyrrolo[3,4-b]quinolin-1-one derivatives as possible antileishmanial agents” (RSC Med Chem, 2022).

What is called inhibition is the drop in the measured response relative to a control, in per cent. `CC(C)(C)NC(=O)C(c1ccc(F)cc1)N1Cc2nc3ccc(O)cc3c(-c3ccccc3)c2C1=O` (configuration not stated): the Activity entry with J774 [1] is on record as “Non-Toxic”; in the data set on J774 [4], “>= 30%”. In addition, the inhibition at 25 µM came out at 72.7% in the data set with Leishmania donovani [2] and 69% with Leishmania donovani [3].

As for `COc1ccc2nc3c(c(-c4ccccc4)c2c1)C1=NC(=O)C2(CCCC2)N1C3`, the figures for the Activity result with J774 [1] and in the data set with J774 [4] were “Non-Toxic” and “>= 30%”, respectively. The inhibition at 25 µM in the data set with Leishmania donovani [2] was determined as 39%; in the data set on Leishmania donovani [3] it was 31%.

In the case of `CC(C)(C(N)=O)N1Cc2nc3ccc(Cl)cc3c(-c3ccccc3)c2C1=O`, the results for the Activity result with J774 [1] and in the data set on J774 [4] were “Non-Toxic” and “>= 30%”, respectively. In addition, the values for the inhibition at 25 µM in the data set on Leishmania donovani [2] and with Leishmania donovani [3] were 61% and 46%, respectively.

As to `COc1ccc2nc3c(c(-c4ccccc4)c2c1)C(=O)N(C(C(=O)NC(C)(C)C)c1ccccc1)C3` (configuration not stated), the Activity entry with J774 [1] is “Non-Toxic”; in the data set with J774 [4], “>= 30%”. Besides, the inhibition at 25 µM with Leishmania donovani [2] was > 70%; with Leishmania donovani [3], 45%.

On to `COc1ccc2nc3c(c(-c4ccccc4)c2c1)C1=NC(=O)C(c2ccc(C#N)cc2)N1C3` (configuration not stated), for which the Activity result is recorded as “Non-Toxic” in the data set with J774 [1] and “>= 30%” in the data set with J774 [4]. For the same compound, the values for the inhibition at 25 µM in the data set on Leishmania donovani [2] and with Leishmania donovani [3] were 39% and 31%, respectively.

As to `COc1ccc2nc3c(c(-c4ccccc4)c2c1)C1=NC(=O)C(c2ccc(Cl)cc2)N1C3` (configuration not stated), the Activity result with J774 [1] was “Non-Toxic”; in the data set with J774 [4] it was “>= 30%”. Moreover, the figures for the inhibition at 25 µM in the data set with Leishmania donovani [2] and in the data set with Leishmania donovani [3] were 39% and 31%, respectively.

As a reminder, the IC50 is the point on the concentration scale where inhibition reaches its midpoint. Turning to `COc1ccc2nc3c(c(C)c2c1)C(=O)N(C(C)(C)C(=O)NC(C)(C)C)C3`, the Activity entry is recorded as “Non-Toxic” in the data set with J774 [1] and “>= 30%” with J774 [4]. Moreover, the IC50 in the data set on Leishmania donovani [5] was determined as 7.42 µM. For the same compound, the inhibition at 25 µM is > 70% in the data set with Leishmania donovani [2] and 45% with Leishmania donovani [3].

Take `COc1ccc2nc3c(c(-c4ccccc4)c2c1)C(=O)N(C1(C(=O)NC(C)(C)C)CCCCC1)C3`: the Activity result in the data set on J774 [1] is listed as “Non-Toxic”; in the data set with J774 [4], “>= 30%”. Moreover, the IC50 with Leishmania donovani [5] worked out at 5.35 µM. For the same compound, the values for the inhibition at 25 µM with Leishmania donovani [2] and in the data set with Leishmania donovani [3] were > 70% and 45%, respectively.

Take `COc1ccc2nc3c(c(-c4ccccc4)c2c1)C1=NC(=O)C(c2cc(OC)c(OC)c(OC)c2)N1C3` (configuration not stated): the Activity entry in the data set on J774 [1] is reported as “Non-Toxic”; in the data set on J774 [4], “>= 30%”. For the same compound, the inhibition at 25 µM was 39% in the data set on Leishmania donovani [2] and 31% with Leishmania donovani [3].

On to `COc1ccc2nc3c(c(-c4ccccc4)c2c1)C(=O)N(C(C(=O)NC(C)(C)C)c1ccc(C#N)cc1)C3` (configuration not stated), for which the Activity entry is recorded as “Non-Toxic” in the data set on J774 [1] and “>= 30%” with J774 [4]. Moreover, the figures for the inhibition at 25 µM with Leishmania donovani [2] and in the data set on Leishmania donovani [3] were 40% and 45%, respectively.

Consider `COc1ccc2nc3c(c(-c4ccccc4)c2c1)C(=O)N(C(C)(C)C(=O)NC(C)(C)C)C3`, for which the Activity result with J774 [1] is “Non-Toxic”; with J774 [4], “>= 30%”. Also, the inhibition at 25 µM with Leishmania donovani [2] stood at 40%; in the data set on Leishmania donovani [3], 45%.

As to `COc1ccc2nc3c(c(-c4ccccc4)c2c1)C(=O)N(C1(C(=O)NC(C)(C)C)CCCC1)C3`, the Activity entry is “Non-Toxic” in the data set on J774 [1] and “>= 30%” with J774 [4]. Moreover, the inhibition at 25 µM in the data set with Leishmania donovani [2] came out at 40%; with Leishmania donovani [3], 45%.

As to `COc1ccc2nc3c(c(-c4ccccc4)c2c1)C1=NC(=O)C(c2ccc(Br)cc2)N1C3` (configuration not stated), the Activity result in the data set with J774 [1] was “Non-Toxic”; in the data set with J774 [4], “>= 30%”. The inhibition at 25 µM in the data set with Leishmania donovani [2] was found to be 39%; in the data set on Leishmania donovani [3], 31%.

As to `COc1ccc(C(C(=O)NC(C)(C)C)N2Cc3nc4ccc(OC)cc4c(-c4ccccc4)c3C2=O)cc1` (configuration not stated), the Activity entry in the data set on J774 [1] is on record as “Non-Toxic”; with J774 [4], “>= 30%”. Further, the figures for the inhibition at 25 µM with Leishmania donovani [2] and with Leishmania donovani [3] were 40% and 45%, respectively.

Turning to `CC(C)(C)NC(=O)C(C)(C)N1Cc2nc3ccc(Br)cc3c(-c3ccccc3)c2C1=O`, the Activity entry in the data set with J774 [1] is reported as “Non-Toxic”; in the data set with J774 [4], “>= 30%”. In addition, the IC50 in the data set on Leishmania donovani [5] was determined as 10.3 µM. The values for the inhibition at 25 µM in the data set with Leishmania donovani [2] and in the data set with Leishmania donovani [3] were > 70% and 45%, respectively.

As for `COc1ccc2nc3c(c(-c4ccccc4)c2c1)C(=O)N(CC(=O)NC(C)(C)C)C3`, the Activity result in the data set with J774 [1] is “Non-Toxic”; in the data set with J774 [4], “>= 30%”. Moreover, the IC50 in the data set with Leishmania donovani [5] is 8.39 µM. In addition, the inhibition at 25 µM in the data set on Leishmania donovani [2] stood at 40%; in the data set with Leishmania donovani [3] it was 45%.

On to `COc1ccc2nc3c(c(-c4ccccc4)c2c1)C1=NC(=O)C2(CCCCC2)N1C3`, for which the Activity result in the data set with J774 [1] was “Non-Toxic”; with J774 [4], “>= 30%”. In addition, the inhibition at 25 µM in the data set with Leishmania donovani [2] was 39%; with Leishmania donovani [3] it was 31%.

On to `CC(C)(C(N)=O)N1Cc2nc3ccccc3c(-c3ccccc3)c2C1=O`, for which the Activity entry with J774 [1] was “Non-Toxic”; in the data set on J774 [4] it was “>= 30%”. The inhibition at 25 µM in the data set with Leishmania donovani [2] was found to be 61%; with Leishmania donovani [3], 46%.

Take `COc1ccc2nc3c(c(-c4ccccc4)c2c1)C(=O)N(C(C(=O)NC(C)(C)C)c1ccc(C(F)(F)F)cc1)C3` (configuration not stated): the results for the Activity entry with J774 [1] and in the data set on J774 [4] were “Non-Toxic” and “>= 30%”, respectively. The inhibition at 25 µM is > 70% in the data set with Leishmania donovani [2] and 45% in the data set with Leishmania donovani [3].

Take `COc1ccc2nc3c(c(-c4ccccc4)c2c1)C(=O)N(C(C(=O)NC(C)(C)C)c1cc(OC)c(OC)c(OC)c1)C3` (configuration not stated): the Activity result in the data set with J774 [1] is recorded as “Non-Toxic”; with J774 [4], “>= 30%”. Moreover, the inhibition at 25 µM in the data set on Leishmania donovani [2] is 40%; in the data set with Leishmania donovani [3] it was 45%.

Take `COc1ccc2nc3c(c(-c4ccccc4)c2c1)C(=O)N(C(C(=O)NC(C)(C)C)c1ccc(F)cc1)C3` (configuration not stated): the figures for the Activity result in the data set on J774 [1] and in the data set with J774 [4] were “Non-Toxic” and “>= 30%”, respectively. The inhibition at 25 µM turned out to be 40% in the data set with Leishmania donovani [2] and 45% in the data set with Leishmania donovani [3].

Consider `CC1(C)C(=O)N=C2c3c(nc4ccc(Br)cc4c3-c3ccccc3)CN21`, for which the results for the Activity result with J774 [1] and in the data set on J774 [4] were “Non-Toxic” and “>= 30%”, respectively. In addition, the inhibition at 25 µM with Leishmania donovani [2] worked out at 39%; in the data set with Leishmania donovani [3], 31%.

For the compound `CC(C)(C)NC(=O)C(C)(C)N1Cc2nc3ccccc3c(-c3ccccc3)c2C1=O`, the Activity result in the data set with J774 [1] is reported as “Non-Toxic”; in the data set on J774 [4], “>= 30%”. Further, the figures for the inhibition at 25 µM with Leishmania donovani [2] and in the data set with Leishmania donovani [3] were 40% and 45%, respectively.

As for `CC(C)(C)NC(=O)C(C)(C)N1Cc2nc3ccc(O)cc3c(-c3ccccc3)c2C1=O`, the Activity result is “Non-Toxic” with J774 [1] and “>= 30%” in the data set on J774 [4]. In addition, the inhibition at 25 µM is 77.2% in the data set with Leishmania donovani [2] and 69% in the data set with Leishmania donovani [3].

As for `COc1ccc2nc3c(c(-c4ccccc4)c2c1)C1=NC(=O)C(c2ccccc2)N1C3` (configuration not stated), the Activity result in the data set with J774 [1] was “Non-Toxic”; with J774 [4] it was “>= 30%”. For the same compound, the values for the inhibition at 25 µM with Leishmania donovani [2] and in the data set with Leishmania donovani [3] were 39% and 31%, respectively.

For `COc1ccc2nc3c(c(-c4ccccc4)c2c1)C1=NC(=O)C(C)(C)N1C3`, the Activity result with J774 [1] is listed as “Non-Toxic”; in the data set on J774 [4], “>= 30%”. For the same compound, the inhibition at 25 µM was 39% in the data set on Leishmania donovani [2] and 31% with Leishmania donovani [3].

Regarding `COc1ccc2nc3c(c(-c4ccccc4)c2c1)C(=O)N(C(C(=O)NC(C)(C)C)c1ccc(O)cc1)C3` (configuration not stated), the Activity result in the data set on J774 [1] was “Non-Toxic”; in the data set with J774 [4] it was “>= 30%”. Moreover, the inhibition at 25 µM is 40% in the data set on Leishmania donovani [2] and 45% with Leishmania donovani [3].
